# Laboratory results reported in patent US8221997B2, “Microorganism and method for producing carotenoid using the same” (Tosoh Corporation, priority 2005, dated 2012).
# Test system: Paracoccus sp. strain TSN18E7
# Experiment: Evaluation of growth ability against metabolic analogue β-ionone (colony formation on plate culture medium)
# Type: cell-based
# Conditions: plate culture medium of Table 2 with β-ionone in DMSO at final 0.01, 1, 2, 5 and 10 mM; 5 days at 25° C.; colonies visually counted
# Protocol: bacterium Paracoccus sp. strain TSN18E7 was inoculated in 5 mL of liquid medium shown in Table 1, and cultured for one (1) day at 25° C. under shaking and 150 rpm. The culture solution was diluted in a culture medium shown in Table 1, and spread on a plate culture medium having a composition shown in Table 2 supplemented with β-ionone (Aldrich) dissolved in dimethylsulfoxide (DMSO). β-ionone was supplemented at final concentrations of 0.01, 1, 2, 5 and 10 mM. Then the plate culture medium on which strain TSN18E7 was spread was cultured for 5 days at 25° C. Appearing colonies were visually counted and evaluated for growth ability of strain TSN18E7 for each concentration of β-ionone. The strain TSN18E7 inhibited growth in the presence of β-ionone of 1 mM or more, and formation of colony was not observed. We concluded that for separation of β-ionone resistant strain, suitable β-ionone concentration in culture is 1 mM in final concentration.
compound,measurement,value
CC(=O)/C=C/C1=C(C)CCCC1(C)C [β-ionone],β-ionone concentration at which growth of the strain is inhibited and formation of colony is not observed,≥ 1 mM
